Measured values taken from PMC6272684, “Synthesis, Antiproliferative and Antifungal Activities of 1,2,3-Triazole-Substituted Carnosic Acid and Carnosol Derivatives” (Molecules, 2015).

Legend:
[1] = test system: lung cancer (SK-MES-1) cells; assay: Antiproliferative assay (MTT reduction, 3 days); type: cell-based, human; conditions: >100 µM considered inactive, read-out: IC50 ± SD, SK-MES-1
Experimental: (§1) The antiproliferative activity towards the following human cell lines was determined: normal lung fibroblasts (MRC-5), gastric epithelial adenocarcinoma (AGS), lung cancer (SK-MES-1) and bladder carcinoma (J82) cells.
(§2) All human cell lines used in this work were purchased from the American Type Culture Collection (ATCC, Manasas, VA, USA). […] All media were supplemented with 10% heat-inactivated FBS, 100 IU∙mL^−1 penicillin and 100 µg∙mL^−1 streptomycin. Cells were grown in a humidified incubator with 5% CO2 in air at 37 °C. For the antiproliferative assay, cells were plated at a density of 5 × 10^4 cells∙mL^−1. Cells were seeded in 96-well plates (100 µL∙well^−1). One day after seeding, cells were treated with medium containing the compounds at concentrations ranging from 0 up to 100 µM during 3 days. The compounds were dissolved in DMSO (1% final concentration) and complete medium. Untreated cells (medium containing 1% DMSO) were used as 100% viability controls. […] Each concentration was tested in sextuplicate and experiments were repeated 2 times. Cell viability was determined by means of the MTT reduction assay at the end of the incubation with the products. […] The software used was OriginPro 8.1 [30].

[2] = test system: normal lung fibroblasts (MRC-5); assay: Antiproliferative assay (MTT reduction, 3 days); type: cell-based, human; conditions: MRC-5 normal fibroblasts, >100 µM considered inactive, read-out: IC50 ± SD, MRC-5
Experimental: as §1, §2

[3] = test system: bladder carcinoma (J82) cells; assay: Antiproliferative assay (MTT reduction, 3 days); type: cell-based, human; conditions: J82 cells, 3 days, MTT; >100 µM considered inactive; read-out: IC50 ± SD, J82
[4] = test system: gastric epithelial adenocarcinoma (AGS) cells; assay: Antiproliferative assay (MTT reduction, 3 days); type: cell-based, human; conditions: >100 µM considered inactive, read-out: IC50 ± SD, AGS
[5] = test system: C. albicans ATCC 10231; assay: Antifungal broth microdilution (CLSI M27-A3), growth inhibition; type: cell-based, Candida albicans
Method in brief: (§3)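 Yeast inocula (1–5 × 10^3 CFU/mL) were tested by CLSI M27-A3 broth microdilution in RPMI-1640 at 250–3.9 μg∙mL^−1 (DMSO ≤1%) for 48 h at 30 °C in the dark. Growth was read at OD405, and % inhibition was calculated against growth and sterility controls in triplicate. MIC100 is total inhibition; MIC50 is 50% inhibition.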

[6] = test system: C. neoformans ATCC 32264; assay: as above; type: cell-based, Cryptococcus neoformans
Method in brief: as §3

IC50 [1]: > 100 µM
IC50 [3]: > 100 µM
IC50 [4]: > 100 µM
MIC50 (minimum concentration to inhibit 50% of fungal growth), C. albicans ([5]; C. albicans ATCC 10231): >250 µg/mL
MIC50 (minimum concentration to inhibit 50% of fungal growth), C. neoformans ([6]; C. neoformans ATCC 32264): >250 µg/mL
Compound: CC(C)c1cc2c3c(c1OC(=O)CCCc1cn(Cc4ccc([N+](=O)[O-])cc4)nn1)OC(=O)C31CCCC(C)(C)C1CC2 (centres unmarked) [Compound 8, 12-O-(4-(1-(4-nitrobenzyl)-1H-1,2,3-triazol-4-yl)-butanoyloxy)-11,20-epoxyabieta-8,11,13-trien-20-one]
IC50 [2]: > 100 µM
Inhibition percentage against C. albicans ATCC 10231 ([5]; 3.9 μg∙mL^−1, 48 h): 0.0%
Inhibition percentage against C. albicans ATCC 10231 ([5]; 7.8 μg∙mL^−1, 48 h): 0.0%
Inhibition percentage against C. albicans ATCC 10231 ([5]; 15.6 μg∙mL^−1, 48 h): 0.0%
Inhibition percentage against C. albicans ATCC 10231 ([5]; 62.5 μg∙mL^−1, 48 h): 5.6 ± 1.7%
Inhibition percentage against C. albicans ATCC 10231 ([5]; 125 μg∙mL^−1, 48 h): 14.0 ± 1.9%
Inhibition percentage against C. albicans ATCC 10231 ([5]; 250 μg∙mL^−1, 48 h): 27.5 ± 2.0%
Inhibition percentage against C. albicans ATCC 10231 ([5]; 31. μg∙mL^−1, 48 h): 2.5 ± 1.3%
Inhibition percentage against C. neoformans ATCC 32264 ([6]; 3.9 μg∙mL^−1, 48 h): 0.0%
Inhibition percentage against C. neoformans ATCC 32264 ([6]; 7.8 μg∙mL^−1, 48 h): 0.0%
Inhibition percentage against C. neoformans ATCC 32264 ([6]; 15.6 μg∙mL^−1, 48 h): 0.3 ± 0.1%
Inhibition percentage against C. neoformans ATCC 32264 ([6]; 31.2 μg∙mL^−1, 48 h): 0.8 ± 0.1%
Inhibition percentage against C. neoformans ATCC 32264 ([6]; 62.5 μg∙mL^−1, 48 h): 8.2 ± 2.8%
Inhibition percentage against C. neoformans ATCC 32264 ([6]; 125 μg∙mL^−1, 48 h): 9.5 ± 2.9%
Inhibition percentage against C. neoformans ATCC 32264 ([6]; 250 μg∙mL^−1, 48 h): 10.4 ± 2.8%
